The results in this text go back to patent US12643879B2, “Functionalized heterocyclic compounds as modulators of stimulator of interferon genes (STING)” (RYVU THERAPEUTICS S.A., priority 2019, dated 2026).

Assay [1] has as its system NF-κB pathway in THP-1 dual cells. Nature of the assay: THP-1 Dual reporter assay, NF-κB pathway (SEAP). The format is cell-based. Conditions: Homo sapiens, THP1-Dual, read-out: THP1 Dual EC50 (μM) NFkB. The essentials:
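Readouts come from THP-1 dual cell supernatant taken 18 h after STING agonist addition. SEAP activity is developed in detection medium for 1–2 h at 37° C and read at 630/655 nm; luciferase is read by luminescence immediately after reagent addition.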
On the technique in general: Reporter assays use an easily measured gene product as a stand-in for the process of interest.

A further assay has as its target human STING (Homo sapiens, UniProt Q86WV6). Nature of the assay: Fluorescence Thermal Shift assay (binding to STING). The conditions noted are these: STING 0.1 mg/mL, SyproOrange, 25 to 99° C. The method, then:
Compounds, constructs and conjugates of the present invention were tested for binding to human STING in Fluorescence Thermal Shift assay. STING was preincubated with the compounds for 20 minutes in 50 mM Hepes, 150 mM NaCl, pH 7.5 in 15 or 16 μl volume, following by adding 4 μl of SyproOrange dye dilution (ThermoFisher, cat no. S-6651). Final STING concentration was 0.1 mg/mL. Thermal unfolding was performed in Real-Time PCR QuantStudio 6 Flex System (Applied Biosystems), from 25 to 99° C., with continuous ramp mode and ramp rate 0.033° C./s. The data were analyzed using Protein Thermal Shift Software (ThermoFisher).

Assay [2] concerns interferon regulatory factor (IRF) pathway in THP-1 dual cells. Nature of the assay: THP-1 Dual reporter assay, IRF pathway (luciferase). The conditions noted are these: Homo sapiens, THP1-Dual, read-out: THP1 Dual EC50 (μM) IRF. The format is cell-based. The essentials: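 IRF output: ISRE-ISG54 luciferase in collected medium, luminescence measured immediately on reagent addition. NF-κB output: SEAP under NF-κB-element IFN-β promoter, detection medium 1 or 2 h at 37° C, absorbance 630 or 655 nm. Cells were stimulated with STING agonist for 18 h beforehand.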

[3] abbreviates: 18 h stimulation, absorbance at 630 or 655 nm.

Where a name gives a salt, the structure may show the parent alone. Read-outs that look alike come from different tables or passages of the source. Some results are limits rather than exact numbers.

human STING, sequence (Q86WV6 whole entry H232R): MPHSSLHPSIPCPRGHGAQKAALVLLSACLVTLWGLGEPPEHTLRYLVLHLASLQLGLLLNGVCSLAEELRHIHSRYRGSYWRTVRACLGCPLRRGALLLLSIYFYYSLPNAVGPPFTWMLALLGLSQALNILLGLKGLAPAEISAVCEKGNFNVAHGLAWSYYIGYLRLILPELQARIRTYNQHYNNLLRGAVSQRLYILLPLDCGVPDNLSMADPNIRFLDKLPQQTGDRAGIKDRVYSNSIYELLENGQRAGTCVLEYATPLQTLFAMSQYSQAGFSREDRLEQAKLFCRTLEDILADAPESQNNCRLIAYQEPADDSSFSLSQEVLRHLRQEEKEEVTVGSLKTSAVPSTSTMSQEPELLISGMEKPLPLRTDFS

Consider `Cc1ccc(N2CCC[C@H](N(Cc3ccnc(C)c3)Cc3cn(C)c4cc(N5CCC(N)CC5)ccc4c3=O)C2)cn1.Cl` [Example 6, 7-(4-Aminopiperidin-1-yl)-1-methyl-3-({[(3S)-1-(6-methylpyridin-3-yl)piperidin-3-yl][(2-methylpyridin-4-yl)methyl]amino}methyl)-1,4-dihydroquinolin-4-one hydrochloride], for which the EC50 was 1 to 10 µM in assay [1] (setting [3]) and 1 to 10 µM in assay [2] (18 h stimulation, luminescence). The “hSTING FTS binding assay (ΔT C. °)” value at human STING is “++ (++=10<ΔTm <20° C.)”.
With `Cc1ccc(N2CCC[C@H](N(Cc3ccnc(C)c3)Cc3cn(C4CC4)c4cc(N)c(F)cc4c3=O)C2)cn1` [Example 7, 7-Amino-1-cyclopropyl-6-fluoro-3-({[(3S)-1-(6-methylpyridin-3-yl)piperidin-3-yl][(2-methylpyridin-4-yl)methyl]amino}methyl)-1,4-dihydroquinolin-4-one], the EC50 in assay [1] (setting [3]) is less than 1 µM; in assay [2] (18 h stimulation, luminescence), less than 1 µM. The “hSTING FTS binding assay (ΔT C. °)” value on human STING is given as “+++ (+++=ΔTm ≥20° C.)”.
`Cc1ccc(N2CCC[C@H](N(Cc3ccnc(C)c3)Cc3cn(C4CC4)c4cc(NCCN)c(F)cc4c3=O)C2)cn1` [Example 8, 7-[(2-Aminoethyl)amino]-1-cyclopropyl-6-fluoro-3-({[(3S)-1-(6-methylpyridin-3-yl)piperidin-3-yl][(2-methylpyridin-4-yl)methyl]amino}methyl)-1,4-dihydroquinolin-4-one]: the concentration giving a half-maximal response (EC50) was less than 1 µM in assay [1] (setting [3]) and less than 1 µM in assay [2] (18 h stimulation, luminescence). The “hSTING FTS binding assay (ΔT C. °)” value at human STING is “+++ (+++=ΔTm ≥20° C.)”.
Consider `Cc1ccc(N2CCC[C@H](N(Cc3ccnc(C)c3)Cc3cn(C4CC4)c4cc(NCCN(C)C)c(F)cc4c3=O)C2)cn1` [Example 9, 1-Cyclopropyl-7-{[2-(dimethylamino)ethyl]amino}-6-fluoro-3-({[(3S)-1-(6-methylpyridin-3-yl)piperidin-3-yl][(2-methylpyridin-4-yl)methyl]amino}methyl)-1,4-dihydroquinolin-4-one], for which the EC50 is less than 1 µM in assay [1] (setting [3]) and less than 1 µM in assay [2] (18 h stimulation, luminescence). Also, the “hSTING FTS binding assay (ΔT C. °)” value on human STING is “+++ (+++=ΔTm ≥20° C.)”.
Regarding `Cc1ccc(N2CCC[C@H](N(Cc3ccnc(C)c3)Cc3cn(C4CC4)c4cc(OCCN)c(F)cc4c3=O)C2)cn1` [Example 10, 7-(2-Aminoethoxy)-1-cyclopropyl-6-fluoro-3-({[(3S)-1-(6-methylpyridin-3-yl)piperidin-3-yl][(2-methylpyridin-4-yl)methyl]amino}methyl)-1,4-dihydroquinolin-4-one], the EC50 in assay [1] (setting [3]) is less than 1 µM; in assay [2] (18 h stimulation, luminescence), less than 1 µM. Besides, the “hSTING FTS binding assay (ΔT C. °)” value at human STING is on record as “+++ (+++=ΔTm ≥20° C.)”.
Turning to `CNCCOc1cc2c(cc1F)c(=O)c(CN(Cc1ccnc(C)c1)[C@H]1CCCN(c3ccc(C)nc3)C1)cn2C1CC1.Cl` [Example 11, 1-Cyclopropyl-6-fluoro-7-[2-(methylamino)ethoxy]-3-({[(3S)-1-(6-methylpyridin-3-yl)piperidin-3-yl][(2-methylpyridin-4-yl)methyl]amino}methyl)-1,4-dihydroquinolin-4-one hydrochloride], the EC50 in assay [1] (setting [3]) was less than 1 µM; in assay [2] (18 h stimulation, luminescence), less than 1 µM. The “hSTING FTS binding assay (ΔT C. °)” value at human STING is reported as “+++ (+++=ΔTm ≥20° C.)”.
On to `Cc1ccc(N2CCC[C@H](N(Cc3ccnc(C)c3)Cc3cn(C4CC4)c4cc(N5CC[C@@H](N)C5)c(F)cc4c3=O)C2)cn1.Cl` [Example 12, 7-[(3R)-3-Aminopyrrolidin-1-yl]-1-cyclopropyl-6-fluoro-3-({[(3S)-1-(6-methylpyridin-3-yl)piperidin-3-yl][(2-methylpyridin-4-yl)methyl]amino}methyl)-1,4-dihydroquinolin-4-one hydrochloride], for which the EC50 in assay [1] (setting [3]) was less than 1 µM; in assay [2] (18 h stimulation, luminescence), less than 1 µM. In addition, the “hSTING FTS binding assay (ΔT C. °)” value at human STING is on record as “+++ (+++=ΔTm ≥20° C.)”.
As for `Cc1ccc(N2CCC[C@H](N(Cc3ccnc(C)c3)Cc3cn(C4CC4)c4cc(N5CC[C@H](N)C5)c(F)cc4c3=O)C2)cn1.Cl` [Example 13, 7-[(3S)-3-Aminopyrrolidin-1-yl]-1-cyclopropyl-6-fluoro-3-({[(3S)-1-(6-methylpyridin-3-yl)piperidin-3-yl][(2-methylpyridin-4-yl)methyl]amino}methyl)-1,4-dihydroquinolin-4-one hydrochloride], the EC50 is less than 1 µM in assay [1] (setting [3]) and less than 1 µM in assay [2] (18 h stimulation, luminescence). The “hSTING FTS binding assay (ΔT C. °)” value at human STING was “+++ (+++=ΔTm ≥20° C.)”.
Regarding `Cc1ccc(N2CCC[C@H](N(Cc3ccnc(C)c3)Cc3cn(C4CC4)c4cc(N5CC[C@@H](O)C5)c(F)cc4c3=O)C2)cn1.Cl` [Example 14, 1-Cyclopropyl-6-fluoro-7-[(3R)-3-hydroxypyrrolidin-1-yl]-3-({[(3S)-1-(6-methylpyridin-3-yl)piperidin-3-yl][(2-methylpyridin-4-yl)methyl]amino}methyl)-1,4-dihydroquinolin-4-one hydrochloride], the EC50 in assay [1] (setting [3]) is less than 1 µM; in assay [2] (18 h stimulation, luminescence), less than 1 µM. Moreover, on human STING, the “hSTING FTS binding assay (ΔT C. °)” value was “+++ (+++=ΔTm ≥20° C.)”.
For the compound `Cc1ccc(N2CCC[C@H](N(Cc3ccnc(C)c3)Cc3cn(C4CC4)c4cc(N5CC[C@H](CN)C5)c(F)cc4c3=O)C2)cn1` [Example 15, 7-[(3R)-3-(Aminomethyl)pyrrolidin-1-yl]-1-cyclopropyl-6-fluoro-3-({[(3S)-1-(6-methylpyridin-3-yl)piperidin-3-yl][(2-methylpyridin-4-yl)methyl]amino}methyl)-1,4-dihydroquinolin-4-one hydrochloride], the EC50 is less than 1 µM in assay [1] (setting [3]) and less than 1 µM in assay [2] (18 h stimulation, luminescence). Also, the “hSTING FTS binding assay (ΔT C. °)” value on human STING is reported as “+++ (+++=ΔTm ≥20° C.)”.
On to `Cc1ccc(N2CCC[C@H](N(Cc3ccnc(C)c3)Cc3cn(C4CC4)c4cc(N5CCC[C@H](N)C5)c(F)cc4c3=O)C2)cn1` [Example 16, 7-[(3S)-3-Aminopiperidin-1-yl]-1-cyclopropyl-6-fluoro-3-({[(3S)-1-(6-methylpyridin-3-yl)piperidin-3-yl][(2-methylpyridin-4-yl)methyl]amino}methyl)-1,4-dihydroquinolin-4-one], for which the EC50 in assay [1] (setting [3]) is less than 1 µM; in assay [2] (18 h stimulation, luminescence), less than 1 µM. Besides, the “hSTING FTS binding assay (ΔT C. °)” value at human STING is listed as “+++ (+++=ΔTm ≥20° C.)”.
For the compound `Cc1ccc(N2CCC[C@H](N(Cc3ccnc(C)c3)Cc3cn(C4CC4)c4cc(N5CCC[C@@H](N)C5)c(F)cc4c3=O)C2)cn1` [Example 17, 7-[(3R)-3-Aminopiperidin-1-yl]-1-cyclopropyl-6-fluoro-3-({[(3S)-1-(6-methylpyridin-3-yl)piperidin-3-yl][(2-methylpyridin-4-yl)methyl]amino}methyl)-1,4-dihydroquinolin-4-one], the EC50 is less than 1 µM in assay [1] (setting [3]) and less than 1 µM in assay [2] (18 h stimulation, luminescence). For the same compound, at human STING, the “hSTING FTS binding assay (ΔT C. °)” value was “+++ (+++=ΔTm ≥20° C.)”.
For `Cc1ccc(N2CCC[C@H](N(Cc3ccnc(C)c3)Cc3cn(CCN)c4ccccc4c3=O)C2)cn1` [Example 18, 1-(2-Aminoethyl)-3-({[(3S)-1-(6-methylpyridin-3-yl)piperidin-3-yl][(2-methylpyridin-4-yl)methyl]amino}methyl)-1,4-dihydroquinolin-4-one], the EC50 in assay [1] (18 h) and in assay [2] (18 h) was 1 to 10 µM throughout. Further, at human STING, the “hSTING FTS binding assay (ΔT C. °)” value is on record as “+ (+=ΔTm ≤10° C.)”.
For the compound `CNC1CCN(c2cc3c(cc2F)c(=O)c(CN(Cc2ccnc(C)c2)[C@H]2CCCN(c4ccc(C)nc4)C2)cn3C2CC2)CC1.Cl` [Example 19, 1-cyclopropyl-6-fluoro-7-[4-(methylamino)piperidin-1-yl]-3-({[(3S)-1-(6-methylpyridin-3-yl)piperidin-3-yl][(2-methylpyridin-4-yl)methyl]amino}methyl)-1,4-dihydroquinolin-4-one hydrochloride], the EC50 in assay [1] (setting [3]) was less than 1 µM; in assay [2] (18 h stimulation, luminescence) it was less than 1 µM. In addition, the “hSTING FTS binding assay (ΔT C. °)” value on human STING was “+++ (+++=ΔTm ≥20° C.)”.
With `Cc1ccc(N2CCC[C@H](N(Cc3ccnc(C)c3)Cc3cn(C4CC4)c4cc(N5CC[C@@H](CN)C5)c(F)cc4c3=O)C2)cn1.Cl` [Example 20, 7-[(3S)-3-(aminomethyl)pyrrolidin-1-yl]-1-cyclopropyl-6-fluoro-3-({[(3S)-1-(6-methylpyridin-3-yl)piperidin-3-yl][(2-methylpyridin-4-yl)methyl]amino}methyl)-1,4-dihydroquinolin-4-one hydrochloride], the EC50 in assay [1] (setting [3]) was less than 1 µM; in assay [2] (18 h stimulation, luminescence), less than 1 µM. Moreover, at human STING, the “hSTING FTS binding assay (ΔT C. °)” value is “+++ (+++=ΔTm ≥20° C.)”.
As for `COCCn1cc(CN(Cc2ccnc(C)c2)[C@H]2CCCN(c3ccc(N)nc3)C2)c(=O)c2ccccc21.Cl` [Example 21, 3-({[(3S)-1-(6-aminopyridin-3-yl)piperidin-3-yl][(2-methylpyridin-4-yl)methyl]amino}methyl)-1-(2-methoxyethyl)-1,4-dihydroquinolin-4-one hydrochloride], the EC50 in assay [1] (setting [3]) is less than 1 µM; in assay [2] (18 h stimulation, luminescence), less than 1 µM. Also, the “hSTING FTS binding assay (ΔT C. °)” value on human STING is “+++ (+++=ΔTm ≥20° C.)”.

The term EC50 denotes the concentration giving half of the maximal effect.
